Reference: patent publication US20200352947A1, “USE OF SEROTONERGIC DRUGS TO TREAT VIRUS-INDUCED THROMBOCYTOPENIA” (NATIONAL UNIVERSITY OF SINGAPORE, priority 2017, published 2020)

How the values were obtained:
DENV2-infected mice [1] = assay: Platelet counts (thrombocytopenia) in DENV2-infected WT mice; type: in vivo; details: mice, 10^6 pfu DENV2 IP; WAY-100135 3 mg/kg, ketanserin 8 mg/kg or sarpogrelate 3 mg/kg; 24 hours post-infection; n=5
Experimental: Platelet counts of DENV2 infected mice. Mice were infected via intraperitoneal route (IP) with 10^6 plaque forming units (pfu) and were given either vehicle (1% DMSO) or ketanserin 8 mg/kg IP. Blood was taken via cheek bleed 24 hours post-infection and platelet counts were measured using an automated hematology analyzer. DENV2 infection induces thrombocytopenia, but ketanserin treatment is able to prevent thrombocytopenia (n=5). Mean values are presented and error bars represent the SEM. P values were determined by Student's unpaired t test; ***P<0.001, ****P<0.0001.
Platelet counts of DENV2 infected mice. Mice were infected IP with 10^6 pfu of DENV2 and were given either vehicle, the 5HT1A antagonist WAY-100135, or either of the 5HT2A antagonists, ketanserin and sarpogrelate. Blood was taken via cheek bleed 24 hours post-infection and platelet counts were measured using an automated hematology analyzer. DENV2 infection induced thrombocytopenia that was able to be prevented through administration of serotonin receptor antagonists (n=5). Mean values are presented and error bars represent the SEM. P values were determined by one-way ANOVA; ***p<0.001, ****P<0.0001.
WT mice were infected via intraperitoneal route (IP) with 10^6 plaque forming units (pfu) of DENV2 and were given either vehicle (1% DMSO) or ketanserin (8 mg/kg) IP. Blood was taken via cheek bleed 24 hours post-infection and platelet counts were measured using an automated hematology analyzer.
One limitation of the experimental protocol in Examples 10 and 11 is that the vehicle used to deliver ketanserin in mice, DMSO, can itself interfere with platelet aggregation [Rosenblum, W. I. & El-Sabban. F. Stroke 13, 35-39 (1982)]. This difference can be observed by comparing the severity of thrombocytopenia in dengue-infected mice between FIGS. 1 and 10. Accordingly, newer serotonin receptor antagonists that are more soluble in saline were tested, to determine whether a similar effect is seen even without the confounding effects of DMSO. Mice were infected IP with 10^6 pfu of DENV2 and were given either vehicle, the 5HT1A antagonist WAY-100135 (3 mg/kg), or one of the 5HT2A antagonists ketanserin (8 mg/kg) or sarpogrelate (3 mg/kg). Blood was taken via cheek bleed 24 hours post-infection and platelet counts were measured using an automated hematology analyzer.

DENV2-infected mice [2] = assay: Platelet counts and platelet activation in DENV2-infected mice pretreated with fluoxetine; type: in vivo; details: fluoxetine 20 mg/kg/day in drinking water for 2 weeks, then 10^6 pfu DENV2 IP; 24 and 72 hours; n=5
Experimental: Mice were administered fluoxetine (20 mg/kg/day) or vehicle via drinking water for 2 weeks. Mice were then infected with 10^6 pfu of DENV2 intraperitoneally. At 24 and 72 hours, blood was collected and platelet counts were measured. The reduction in platelet counts and increased platelet activation induced by DENV was prevented by fluoxetine treatment (n=5). Mean values are presented and error bars represent the SEM. P values were determined by one-way ANOVA; *P<0.05, **P<0.01, ***P<0.001, ****P<0.0001.
Fluoxetine, an SSRI, prevents the uptake of serotonin into platelets. Activation of platelets by DENV (FIG. 3), will result in the release of stored serotonin, which can act in a positive feedback loop. Mice were treated with fluoxetine (20 mg/kg/day) or vehicle in drinking water for 2 weeks and infected with 10^6 pfu of DENV IP. At 24 and 72 hours, blood was collected and platelet counts were measured. The reduction in platelet counts and increased platelet activation induced by DENV was inhibited by fluoxetine treatment (FIG. 15).

human platelets = assay: Platelet activation (CD41/CD62P flow cytometry) in stimulated human whole blood; type: cell-based; details: 15 min stimulation; CD41/CD62P flow cytometry; n=4
Experimental: (A) Whole blood from healthy human volunteers was isolated and stimulated with DENV2, serotonin, or DENV2+serotonin for 15 min. Cells were then fixed and stained for platelet markers CD41 and CD62P and analyzed by flow cytometry. DENV raised the activation levels of platelets. […] (B) Human whole blood was stimulated with DENV2, mast cells (MCs) or DENV2+MCs in the presence of vehicle or ketanserin (100 nM or 500 nM) for 15 min prior to assessment of platelet activation. […] Mean values are presented and error bars represent the SEM. P values were determined by one-way ANOVA; *P<0.05, ** P<0.01, ***P<0.001, ****P<0.0001, ns: non-significant.
Additionally, products from DENV-stimulated human mast cells promoted platelet activation, dependent on platelet 5HT2A receptor, since this effect was abolished by ketanserin (FIG. 9B). […] Furthermore, ketanserin is effective in reversing DENV-induced human platelet activation.

DENV2-infected Sash mice = assay: Exogenous serotonin in DENV2-infected mast cell-deficient (Sash) mice; type: in vivo; details: serotonin 150 mg/kg daily
Experimental: (A) Sash mice were infected with DENV2 and treated with 150 mg/kg of serotonin or vehicle daily. Blood was taken for analysis 3 days post-infection. […] (C) Representative eosin and methylene blue staining of peripheral blood smears day 3 post-infection. Some individual platelets are indicated by arrows. Platelet aggregates are surrounded by a dashed line. Scale bar=25 μm. Means are presented with error bars representing the SEM. P values were determined by Student's unpaired t test; ns: non-significant, **P<0.01, ***P<0.001.

DENV2-infected WT mice = assay: Exogenous serotonin in DENV2-infected and uninfected WT mice; type: in vivo; details: serotonin 150 mg/kg daily
Experimental: (A) WT mice were infected with DENV2 (1×10^6 pfu i.p.) and treated with 150 mg/kg of serotonin or vehicle daily. […] (B) Blood of DENV infected mice treated with serotonin or vehicle was isolated and stained for platelet marker CD41 and activation marker CD62P and analyzed by flow cytometry. […] (C) Representative peripheral blood smears, day 3 post-infection, show platelet aggregation (dashed lines), which was more visually apparent following exogenous serotonin treatment compared to DENV infection. Some individual platelets are indicated by arrows. Scale bar=25 μm. Mean values are presented and error bars represent the SEM. P values were determined by Student's unpaired t test; *P<0.05, ns: non-significant.
WT mice were infected with DENV and administered exogenous serotonin to determine if there was an increase in platelet activation mediated by serotonin and if this would worsen thrombocytopenia in vivo.

With `COc1ccccc1N1CCN(C[C@@H](C(=O)NC(C)(C)C)c2ccccc2)CC1` [WAY-100135, (S)-N-tert-butyl-3-(4-(2-methoxyphenyl)-piperazin-1-yl)-2-phenylpropanamide] the “platelet counts (DENV2-induced thrombocytopenia)” value (DENV2-infected mice [1]) was “prevented”.

For `CNCCC(Oc1ccc(C(F)(F)F)cc1)c1ccccc1` (stereo not shown) [fluoxetine], the “increased platelet activation induced by DENV” value (DENV2-infected mice [2]) was “inhibited” and the “reduction in platelet counts induced by DENV” value (DENV2-infected mice [2]) was “inhibited”.

With `COc1cccc(CCc2ccccc2OCC(CN(C)C)OC(=O)CCC(=O)O)c1` (stereo not shown) [sarpogrelate, 4-[1-(dimethylamino)-3-[2-[2-(3-methoxyphenyl)ethyl]phenoxy]propan-2-yl]oxy-4-oxobutanoic acid] the “platelet counts (DENV2-induced thrombocytopenia)” value (DENV2-infected mice [1]) was “prevented”.

In the case of `NCCc1c[nH]c2ccc(O)cc12` [serotonin], the “platelet activation in human whole blood stimulated with DENV2+serotonin” value (human platelets) is reported as “significantly enhanced platelet activation over control and DENV groups”, the circulating platelet counts (DENV2-infected Sash mice; 3 days post-infection) is reported as “significantly reduced circulating platelet counts compared to vehicle (mock)-treated animals” and the platelet activation (DENV2-infected Sash mice; 3 days post-infection, n=5-8) is reported as “increased platelet activation in infected mice compared to vehicle treated controls”. For the same molecule, the “platelet aggregates in peripheral blood films” value (DENV2-infected Sash mice; day 3 post-infection) was “increased platelet aggregates”, the “platelet aggregates in peripheral blood films” value (DENV2-infected WT mice; DENV2-infected WT mice, day 3 post-infection) was “platelet aggregates increased” and the “platelet activation (CD41/CD62P) in infected mice” value (DENV2-infected WT mice; DENV2-infected WT mice, n=6-12) was “further increased”. The “platelet counts (thrombocytopenia) in infected mice” value (DENV2-infected WT mice; WT mice, DENV2 1×10^6 pfu i.p., 3 days post-infection) was “worsened thrombocytopenia during DENV infection compared to vehicle-treated mice”, the “platelet activation (CD41/CD62P) in uninfected mice” value (DENV2-infected WT mice; uninfected WT mice) was “did not result in platelet activation in uninfected mice” and the “platelet counts in uninfected mice” value (DENV2-infected WT mice; uninfected WT mice) was “did not affect platelet counts in uninfected WT mice”.
